Converted amounts (≈) assume the structure as drawn.
Legend:
Type in all cases: cell-based
[1] = tested on: E. coli DY-1; test: MIC by agar dilution, E. coli DY-1; conditions: Escherichia coli, DY1, 17 h; E. coli DY-1; agar dilution, Mueller-Hinton agar; read-out: Minimal Inhibitory Concentration (MIC)
Method: (§1) These MIC values were determined by agar dilution method: that is, two-fold dilutions of each of the test compounds were made and dispersed in a Mueller-Hinton agar medium; standard test strain which had the 10^6 CFU (Colony Forming Unit) per ml was inoculated on the medium with microplanter (Toyo, Japan), and incubated at 35°-37° C. for 17±1 hours. The structures of Ceftazidime (CAZ) and Cefotaxime (CTX) which are used as control compounds are as follows: [drawing 12]

[2] = tested on: Staph. aureus C-57; test: MIC by agar dilution, Staph. aureus C-57; conditions: Staphylococcus aureus, C57, 17 h, Mueller-Hinton agar, read-out: Minimal Inhibitory Concentration (MIC)
Method: as §1

[3] = tested on: Prov. stuartii IFO 12930; test: MIC by agar dilution, Prov. stuartii IFO 12930; conditions: Providencia stuartii, IFO12930, 17 h, Mueller-Hinton agar, read-out: Minimal Inhibitory Concentration (MIC)
Method: as §1

[4] = tested on: Staph. aureus C-5113; test: MIC by agar dilution, Staph. aureus C-5113; conditions: Staphylococcus aureus, C5113, 17 h, Mueller-Hinton agar, read-out: Minimal Inhibitory Concentration (MIC)
Method: as §1

[5] = tested on: Ser. marcescens IFO 12648; test: MIC by agar dilution, Ser. marcescens IFO 12648; conditions: Serratia marcescens, IFO12648, 17 h; Ser. marcescens IFO 12648; agar dilution, Mueller-Hinton agar; read-out: Minimal Inhibitory Concentration (MIC)
Method: as §1

[6] = tested on: E. coli No. 29; test: MIC by agar dilution, E. coli No. 29; conditions: Escherichia coli, 17 h; E. coli No. 29; agar dilution, Mueller-Hinton agar; read-out: Minimal Inhibitory Concentration (MIC)
Method: as §1

[7] = tested on: Staph. aureus ATCC 6538P; test: MIC by agar dilution, Staph. aureus ATCC 6538P; conditions: Staphylococcus aureus, ATCC6538P, 17 h; Staph. aureus ATCC 6538P; agar dilution, Mueller-Hinton agar; read-out: Minimal Inhibitory Concentration (MIC)
Method: as §1

[8] = tested on: M. morganii DY-1; test: MIC by agar dilution, M. morganii DY-1; conditions: Morganella morganii, DY1, 17 h; M. morganii DY-1; agar dilution, Mueller-Hinton agar; read-out: Minimal Inhibitory Concentration (MIC)
Method: as §1

[9] = tested on: Ps. aeruginosa NCTC 10490; test: MIC by agar dilution, Ps. aeruginosa NCTC 10490; conditions: Pseudomonas aeruginosa, NCTC10490, 17 h, Mueller-Hinton agar, read-out: Minimal Inhibitory Concentration (MIC)
Method: as §1

[10] = tested on: P. vulgaris NCTC 8313; test: MIC by agar dilution, P. vulgaris NCTC 8313; conditions: Proteus vulgaris, NCTC8313, 17 h; P. vulgaris NCTC 8313; agar dilution, Mueller-Hinton agar; read-out: Minimal Inhibitory Concentration (MIC)
Method: as §1

[11] = tested on: K. pneumoniae NCTC 9632; test: MIC by agar dilution, K. pneumoniae NCTC 9632; conditions: Klebsiella pneumoniae, NCTC9632, 17 h; K. pneumoniae NCTC 9632; agar dilution, Mueller-Hinton agar; read-out: Minimal Inhibitory Concentration (MIC)
Method: as §1

[12] = tested on: Staph. aureus C-5216; test: MIC by agar dilution, Staph. aureus C-5216; conditions: Staphylococcus aureus, C5216, 17 h, Mueller-Hinton agar, read-out: Minimal Inhibitory Concentration (MIC)
Method: as §1

[13] = tested on: E. coli NIHJ JC-2; test: MIC by agar dilution, E. coli NIHJ JC-2; conditions: Escherichia coli, NIHJJC2, 17 h; E. coli NIHJ JC-2; agar dilution, Mueller-Hinton agar; read-out: Minimal Inhibitory Concentration (MIC)
Method: as §1

[14] = tested on: Ps. aeruginosa ATCC 10145; test: MIC by agar dilution, Ps. aeruginosa ATCC 10145; conditions: Pseudomonas aeruginosa, ATCC10145, 17 h, Mueller-Hinton agar, read-out: Minimal Inhibitory Concentration (MIC)
Method: as §1

[15] = tested on: Ent. cloacae IFO 13535; test: MIC by agar dilution, Ent. cloacae IFO 13535; conditions: Enterobacter cloacae, IFO13535, 17 h; Ent. cloacae IFO 13535; agar dilution, Mueller-Hinton agar; read-out: Minimal Inhibitory Concentration (MIC)
Method: as §1

[16] = tested on: Staph. aureus Smith; test: MIC by agar dilution, Staph. aureus Smith; conditions: Staphylococcus aureus, 17 h, Mueller-Hinton agar, read-out: Minimal Inhibitory Concentration (MIC)
Method: as §1

[17] = tested on: Ent. aerogenes IFO 12979; test: MIC by agar dilution, Ent. aerogenes IFO 12979; conditions: Klebsiella aerogenes, IFO12979, 17 h, Mueller-Hinton agar, read-out: Minimal Inhibitory Concentration (MIC)
Method: as §1

[18] = tested on: S. epidermidis ATCC 12228; test: MIC by agar dilution, S. epidermidis ATCC 12228; conditions: Staphylococcus epidermidis, ATCC12228, 17 h; S. epidermidis ATCC 12228; agar dilution, Mueller-Hinton agar; read-out: Minimal Inhibitory Concentration (MIC)
Method: as §1

[19] = tested on: Ps. aeruginosa DY-2; test: MIC by agar dilution, Ps. aeruginosa DY-2; conditions: Pseudomonas aeruginosa, DY2, 17 h; Ps. aeruginosa DY-2; agar dilution, Mueller-Hinton agar; read-out: Minimal Inhibitory Concentration (MIC)
Method: as §1

[20] = tested on: B. subtilis ATCC 6633; test: MIC by agar dilution, B. subtilis ATCC 6633; conditions: Bacillus subtilis, ATCC6633, 17 h; B. subtilis ATCC 6633; agar dilution, Mueller-Hinton agar; read-out: Minimal Inhibitory Concentration (MIC)
Method: as §1

CO/N=C(\C(=O)N[C@@H]1C(=O)N2C(C(=O)[O-])=C(C[n+]3ccn4cccc4c3C)CS[C@H]12)c1csc(N)n1 [Ex. 40, 7-β-[(Z)-2-(2-aminothiazol-4-yl)-2-methoxylminoacetamido]-3-(1-methylpyrrolo[1,2-a]pyrazinium-2-yl)methyl-3-cephem-4-carboxylate]
MIC [1]: ≤ 0.006 µg/mL | MIC [2]: 12.5 µg/mL (≈ 23.7 µM) | MIC [3]: ≤ 0.006 µg/mL | MIC [4]: 0.78 µg/mL (≈ 1.48 µM) | MIC [5]: 0.012 µg/mL (≈ 0.0227 µM) | MIC [6]: ≤ 0.006 µg/mL | MIC [7]: 0.05 µg/mL (≈ 0.0948 µM) | MIC [8]: 0.012 µg/mL (≈ 0.0227 µM) | MIC [9]: 0.39 µg/mL (≈ 0.739 µM) | MIC [10]: 0.012 µg/mL (≈ 0.0227 µM) | MIC [11]: ≤ 0.006 µg/mL | MIC [12]: 0.78 µg/mL (≈ 1.48 µM) | MIC [13]: 0.012 µg/mL (≈ 0.0227 µM) | MIC [14]: 0.78 µg/mL (≈ 1.48 µM) | MIC [15]: 0.025 µg/mL (≈ 0.0474 µM) | MIC [16]: 0.2 µg/mL (≈ 0.379 µM) | MIC [17]: 0.012 µg/mL (≈ 0.0227 µM) | MIC [18]: 0.05 µg/mL (≈ 0.0948 µM) | MIC [19]: 3.13 µg/mL (≈ 5.93 µM) | MIC [20]: 0.1 µg/mL (≈ 0.19 µM)

CCON=C(C(=O)NC1C(=O)N2C(C(=O)[O-])=C(C[n+]3ccn4c(SCCN)ccc4c3)CSC12)c1csc(N)n1 (stereo not drawn) [Ex. 28, 7-β-[(Z)-2-(2-aminothiazol-4-yl)2-ethoxyiminoacetamido]-3-[6-(2-aminoethylthio)pyrrolo[1,2-a]pyrazinium-2-yl]methyl-3-cephem-4-carboxylate]
MIC [1]: 0.012 µg/mL (≈ 0.0199 µM) | MIC [2]: 50 µg/mL (≈ 83 µM) | MIC [3]: 0.012 µg/mL (≈ 0.0199 µM) | MIC [4]: 0.78 µg/mL (≈ 1.29 µM) | MIC [5]: 0.05 µg/mL (≈ 0.083 µM) | MIC [6]: 0.012 µg/mL (≈ 0.0199 µM) | MIC [7]: 0.2 µg/mL (≈ 0.332 µM) | MIC [8]: 0.05 µg/mL (≈ 0.083 µM) | MIC [9]: 0.39 µg/mL (≈ 0.647 µM) | MIC [10]: 0.012 µg/mL (≈ 0.0199 µM) | MIC [11]: 0.05 µg/mL (≈ 0.083 µM) | MIC [12]: 0.78 µg/mL (≈ 1.29 µM) | MIC [13]: 0.025 µg/mL (≈ 0.0415 µM) | MIC [14]: 1.56 µg/mL (≈ 2.59 µM) | MIC [15]: 0.2 µg/mL (≈ 0.332 µM) | MIC [16]: 0.78 µg/mL (≈ 1.29 µM) | MIC [17]: 0.012 µg/mL (≈ 0.0199 µM) | MIC [18]: 0.05 µg/mL (≈ 0.083 µM) | MIC [19]: 3.13 µg/mL (≈ 5.19 µM) | MIC [20]: 0.1 µg/mL (≈ 0.166 µM)

Nc1nc(/C(=N\O)C(=O)N[C@@H]2C(=O)N3C(C(=O)[O-])=C(C[n+]4ccn5cccc5c4)CS[C@H]23)cs1 [Ex. 7, 7-β-[(Z)-2-(2-aminothiazol-4-yl)-2-hydroxyiminoacetamido]-3-(pyrrolo[1,2-a]pyrazinium-2-yl)methyl-3-cephem-4-carboxylate]
MIC [1]: 0.05 µg/mL (≈ 0.1 µM) | MIC [2]: 25 µg/mL (≈ 50 µM) | MIC [3]: 0.012 µg/mL (≈ 0.024 µM) | MIC [4]: 0.39 µg/mL (≈ 0.781 µM) | MIC [5]: 0.1 µg/mL (≈ 0.2 µM) | MIC [6]: 0.05 µg/mL (≈ 0.1 µM) | MIC [7]: 0.1 µg/mL (≈ 0.2 µM) | MIC [8]: 0.1 µg/mL (≈ 0.2 µM) | MIC [9]: 0.39 µg/mL (≈ 0.781 µM) | MIC [10]: 0.2 µg/mL (≈ 0.4 µM) | MIC [11]: 0.1 µg/mL (≈ 0.2 µM) | MIC [12]: 0.39 µg/mL (≈ 0.781 µM) | MIC [13]: 0.05 µg/mL (≈ 0.1 µM) | MIC [14]: 1.56 µg/mL (≈ 3.12 µM) | MIC [15]: 0.39 µg/mL (≈ 0.781 µM) | MIC [16]: 0.39 µg/mL (≈ 0.781 µM) | MIC [17]: 0.1 µg/mL (≈ 0.2 µM) | MIC [18]: 0.025 µg/mL (≈ 0.05 µM) | MIC [19]: 25 µg/mL (≈ 50 µM) | MIC [20]: 0.2 µg/mL (≈ 0.4 µM)

CON=C(C(=O)NC1C(=O)N2C(C(=O)[O-])=C(C[n+]3ccn4ccc(CO)c4c3)CSC12)c1csc(N)n1 (stereo not drawn) [Ex. 30, 7-β-[(Z)-2-(2-aminothiazol-4-yl)2-methoxyiminoacetamido]-3-(8-hydroxymethylpyrrolo[1,2-a]pyrazinium-2-yl)methyl-3-cephem-4-carboxylate]
MIC [1]: ≤ 0.006 µg/mL | MIC [2]: 50 µg/mL (≈ 92 µM) | MIC [3]: ≤ 0.006 µg/mL | MIC [4]: 3.13 µg/mL (≈ 5.76 µM) | MIC [5]: 0.012 µg/mL (≈ 0.0221 µM) | MIC [6]: ≤ 0.006 µg/mL | MIC [7]: 0.2 µg/mL (≈ 0.368 µM) | MIC [8]: 0.012 µg/mL (≈ 0.0221 µM) | MIC [9]: 0.1 µg/mL (≈ 0.184 µM) | MIC [10]: 0.012 µg/mL (≈ 0.0221 µM) | MIC [11]: 0.012 µg/mL (≈ 0.0221 µM) | MIC [12]: 0.78 µg/mL (≈ 1.43 µM) | MIC [13]: ≤ 0.006 µg/mL | MIC [14]: 0.39 µg/mL (≈ 0.717 µM) | MIC [15]: 0.05 µg/mL (≈ 0.092 µM) | MIC [16]: 0.78 µg/mL (≈ 1.43 µM) | MIC [17]: ≤ 0.006 µg/mL | MIC [18]: 0.05 µg/mL (≈ 0.092 µM) | MIC [19]: 3.13 µg/mL (≈ 5.76 µM) | MIC [20]: 0.1 µg/mL (≈ 0.184 µM)

Reference: patent publication US5593984A, “Cephalosporin derivatives” (Yuhan Corporation, priority 1992, dated 1997)
